Here are results for 23 compounds from patent publication US9540343B2 (Gilead Sciences, Inc., priority 2011, dated 2017).

One series has as its system HIV-IIIb. Description: Test A: Antiviral assay in MT4 cells. The series is classed as cell-based, HIV-1. To be noted: Human immunodeficiency virus 1, IIIB, MT4, 120 h, read-out: % inhibition at 2 μM, percent inhibition of virus-induced cell killing, from dose response curve at 2 uM drug; MT-4 cells infected with HIV-IIIb, 5 days, CellTiter-Glo. Background: In ATP-based viability assays light output follows the ATP content of the culture.

A short description of a further series: in vitro. As to conditions: human, uninfected MT-4 cells, CC50 (nM), same protocol as Test A, CellTiter-Glo. Put shortly:
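Cytoprotection read-out: CellTiter-Glo chemiluminescence after 5 days at 37 °C of HIV-IIIb-infected MT-4 cells (m.o.i. 0.003) with compound in 10-point 3-fold dilutions, quadruplicate, 10% FBS. Cytotoxicity (CC50) measured identically without virus.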

Each structure is given as a SMILES string.

In general, inhibition refers to the change of the read-out against control, counted positive when it falls. Usually CC50 stands for the concentration at which the toxic effect on the cells reaches its halfway point. Low values mean harm at low concentration, high ones better tolerance by the cells. Turning to `NC(=O)c1cc(-c2cccnc2[C@H](Cc2cc(F)cc(F)c2)NC(=O)Cn2cc(C(F)(F)F)nc2C2CC2)ccc1F` [Example 88E, (S)-5-(2-(1-(2-(2-cyclopropyl-4-(trifluoromethyl)-1H-imidazol-1-yl)acetamido)-2-(3,5-difluorophenyl)ethyl)pyridin-3-yl)-2-fluorobenzamide], the inhibition at 2 µM in the series with HIV-IIIb came to 44%. The compound further came in with a CC50 at 5 days in “in vitro” above 53200 nM.
As to `Cc1cc(-c2cccnc2[C@H](Cc2cc(F)cc(F)c2)NC(=O)Cn2nc(C(F)(F)F)c3c2CCCC3)cnc1F` [Example 89, (S)—N-(2-(3,5-difluorophenyl)-1-(6′-fluoro-5′-methyl-3,3′-bipyridin-2-yl)ethyl)-2-(3-(trifluoromethyl)-4,5,6,7-tetrahydro-1H-indazol-1-yl)acetamide], in the series with HIV-IIIb, the inhibition at 2 µM amounted to 73%. The compound further displayed a CC50 at 5 days in the series “in vitro” of 10700 nM.
Consider `CCOC(=O)c1nn(CC(=O)N[C@@H](Cc2cc(F)cc(F)c2)c2ncccc2-c2ccc(F)c(C(N)=O)c2)c2c1C1CCC2C1` (stereo partly drawn) [Example 90F, (S)-5-(2-(2-(3,5-difluorophenyl)-1-(2-(4,5,6,7-tetrahydro-3-carboethoxy-4,7-(methano)indazol-1-yl)acetamido)ethyl)pyridin-3-yl)-2-fluorobenzamide], for which the inhibition at 2 µM with HIV-IIIb is 13%. This compound also had a CC50 at 5 days in the series “in vitro” of 34600 nM.
Taken in the same sequence, the figures for `NC(=O)c1cc(-c2cccnc2[C@H](Cc2cc(F)cc(F)c2)NC(=O)Cn2cc(C(F)(F)F)nc2COCc2ccccc2)ccc1F` [Example 91B, (S)-5-(2-(1-(2-(2-(benzyloxymethyl)-4-(trifluoromethyl)-1H-imidazol-1-yl)acetamido)-2-(3,5-difluorophenyl)ethyl)pyridin-3-yl)-2-fluorobenzamide] were 17% and 22000 nM.
Regarding `O=C(Cc1c[nH]c2ccc(F)cc12)N[C@@H](Cc1cc(F)cc(F)c1)c1ncccc1-c1cccc(OCc2ccccc2)c1` [Example 92, (S)—N-(1-(3-(3-(benzyloxy)phenyl)pyridin-2-yl)-2-(3,5-difluorophenyl)ethyl)-2-(5-fluoro-1H-indol-3-yl)acetamide], the inhibition at 2 µM in the series with HIV-IIIb stood at 0%. In the series “in vitro”, the CC50 at 5 days is 10300 nM.
Turning to `Cc1noc(C)c1-c1cccnc1[C@H](Cc1cc(F)cc(F)c1)NC(=O)Cc1c[nH]c2ccc(F)cc12` [Example 94, N-((1S)-2-(3,5-difluorophenyl)-1-(3-(3,5-dimethylisoxazol-4-yl)pyridin-2-yl)ethyl)-2-(5-fluoro-1H-indol-3-yl)acetamide], in the series with HIV-IIIb, the inhibition at 2 µM turned out to be 3%. The compound also returned a CC50 at 5 days in “in vitro” of 42000 nM.
The matching figures for `N#Cc1cccc(-c2cccnc2[C@H](Cc2cc(F)cc(F)c2)NC(=O)Cn2ccc3ccccc32)c1` [Example 95C, (S)—N-(1-(3-(3-cyanophenyl)pyridin-2-yl)-2-(3,5-difluorophenyl)ethyl)-2-(1H-indol-1-yl)acetamide]: 14% and 14600 nM.
On to `NC(=O)c1cc(-c2cccnc2[C@H](Cc2cc(F)cc(F)c2)NC(=O)Cn2nc(C=O)c3c2C2CC(C3)C2)ccc1F` [Example 96, (S)-5-(2-(2-(3,5-difluorophenyl)-1-(2-(4,5,6,7-tetrahydro-3-formyl-5,7-(methano)indazol-1-yl)acetamido)ethyl)pyridin-3-yl)-2-fluorobenzamide], for which, in the series on HIV-IIIb, the inhibition at 2 µM was 104%. The compound also returned a CC50 at 5 days in “in vitro” of 9620 nM.
The matching figures for `O=C(Cn1nc(C(F)F)c2c1C(F)(F)C1CC21)N[C@@H](Cc1cc(F)cc(F)c1)c1ncccc1-c1ccc2cccnc2c1` (stereo partly drawn) [Example 97, (S)—N-(1-(3-(quinoline-7-yl)-pyridin-2-yl)-2-(3,5-difluorophenyl)ethyl)-2-(3-(difluoromethyl)-5,6-dihydro-4,5-(methano)-6,6-difluoro-cyclopenta[c]pyrazol-1(4H)-yl)acetamide]: 27% and 33900 nM.
As for `O=C(Cn1nc(C(F)F)c2c1C(F)(F)C1CC21)N[C@@H](Cc1cc(F)cc(F)c1)c1ncccc1-c1ccc(S(=O)(=O)NC2CCCCC2)cc1` (stereo partly drawn) [Example 98, (S)—N-(1-(3-(4-(N-cyclohexylsulfamoyl)phenyl)-pyridin-2-yl)-2-(3,5-difluorophenyl)ethyl)-2-(3-(difluoromethyl)-5,6-dihydro-4,5-(methano)-6,6-difluoro-cyclopenta[c]pyrazol-1(4H)-yl)acetamide], the inhibition at 2 µM in the series on HIV-IIIb was found to be 13%. Moreover, the 50% cytotoxic concentration (CC50) at 5 days in “in vitro” came to 18000 nM.
Taken in the same sequence, the figures for `Cc1nnc(-c2cccc(-c3cccnc3[C@H](Cc3cc(F)cc(F)c3)NC(=O)Cc3c[nH]c4ccc(F)cc34)c2)o1` [Example 99, (S)—N-(2-(3,5-difluorophenyl)-1-(3-(3-(5-methyl-1,3,4-oxadiazol-2-yl)phenyl)pyridin-2-yl)ethyl)-2-(5-fluoro-1H-indol-3-yl)acetamide] were 0% and above 53200 nM.
Take `CC(C)Oc1ccc(-c2cccnc2[C@H](Cc2cc(F)cc(F)c2)NC(=O)Cn2nc(C(F)(F)F)c3c2CCCC3)cc1` [Example 100, (S)—N-(2-(3,5-difluorophenyl)-1-(3-(4-isopropoxyphenyl)pyridin-2-yl)ethyl)-2-(3-(trifluoromethyl)-4,5,6,7-tetrahydro-1H-indazol-1-yl)acetamide]: the inhibition at 2 µM in the series on HIV-IIIb worked out at 56%. The same compound returned a CC50 at 5 days in “in vitro” of 7830 nM.
Taken in the same sequence, the figures for `O=C(Cc1c[nH]c2ccc(F)cc12)N[C@@H](Cc1cc(F)cc(F)c1)c1ncccc1-c1ccc(N2CCCC2)nc1` [Example 101, (S)—N-(2-(3,5-difluorophenyl)-1-(6′-(pyrrolidin-1-yl)-3,3′-bipyridin-2-yl)ethyl)-2-(5-fluoro-1H-indol-3-yl)acetamide] were 29% and 12600 nM.
In the case of `CC(C)Cc1ccc(-c2cccnc2[C@H](Cc2cc(F)cc(F)c2)NC(=O)Cc2c[nH]c3ccc(F)cc23)cc1` [Example 103, (S)—N-(2-(3,5-difluorophenyl)-1-(3-(4-isobutylphenyl)pyridin-2-yl)ethyl)-2-(5-fluoro-1H-indol-3-yl)acetamide], in the series on HIV-IIIb, the inhibition at 2 µM amounted to 0%. Also, the CC50 at 5 days in the series “in vitro” is 5170 nM.
The matching figures for `O=C(Cn1nc(C(F)F)c2c1C(F)(F)C1CC21)N[C@@H](Cc1cc(F)cc(F)c1)c1ncccc1-c1ccc2ccncc2c1` (stereo partly drawn) [Example 104, (S)—N-(1-(3-(isoquinolin-7-yl)-pyridin-2-yl)-2-(3,5-difluorophenyl)ethyl)-2-(3-(difluoromethyl)-5,6-dihydro-4,5-(methano)-6,6-difluoro-cyclopenta[c]pyrazol-1(4H)-yl)acetamide]: 32% and 15700 nM.
As to `O=C(Cn1nc(C(F)(F)F)c2c1CCCC2)N[C@@H](Cc1cc(F)cc(F)c1)c1ncccc1-c1ccc(S(=O)(=O)N2CCOCC2)cc1` [Example 105, (S)—N-(2-(3,5-difluorophenyl)-1-(3-(4-(morpholinosulfonyl)phenyl)pyridin-2-yl)ethyl)-2-(3-(trifluoromethyl)-4,5,6,7-tetrahydro-1H-indazol-1-yl)acetamide], the inhibition at 2 µM in the series with HIV-IIIb was found to be 99%. The compound further came in with a CC50 at 5 days in the series “in vitro” of 9080 nM.
Taken in the same sequence, the figures for `NC(=O)c1cc(-c2cccnc2[C@H](Cc2cc(F)cc(F)c2)NC(=O)Cn2cc(C(F)(F)F)nc2C2CCCC2)ccc1F` [Example 107E, (S)-5-(2-(1-(2-(2-cyclopentyl-4-(trifluoromethyl)-1H-imidazol-1-yl)acetamido)-2-(3,5-difluorophenyl)ethyl)pyridin-3-yl)-2-fluorobenzamide] were 30% and 42800 nM.
As to `NC(=O)c1cccc(-c2cccnc2[C@H](Cc2cc(F)cc(F)c2)NC(=O)Cn2ncc3ccccc32)c1` [Example 108, (S)-3-(2-(1-(2-(1H-indazol-1-yl)acetamido)-2-(3,5-difluorophenyl)ethyl)pyridin-3-yl)benzamide], the inhibition at 2 µM in the series with HIV-IIIb worked out at 13%. In the series “in vitro”, this compound displayed a CC50 at 5 days above 53000 nM.
The matching figures for `Cc1ccccc1-c1cccnc1[C@H](Cc1cc(F)cc(F)c1)NC(=O)Cc1c[nH]c2ccc(F)cc12` [Example 109, (S)—N-(2-(3,5-difluorophenyl)-1-(3-o-tolylpyridin-2-yl)ethyl)-2-(5-fluoro-1H-indol-3-yl)acetamide]: 50% and 9080 nM.
Regarding `O=C(Cc1c[nH]c2ccc(F)cc12)N[C@@H](Cc1cc(F)cc(F)c1)c1ncccc1-c1cccc(C(F)(F)F)c1` [Example 110, (S)—N-(2-(3,5-difluorophenyl)-1-(3-(3-(trifluoromethyl)phenyl)pyridin-2-yl)ethyl)-2-(5-fluoro-1H-indol-3-yl)acetamide], the inhibition at 2 µM in the series with HIV-IIIb came out at 6%. Besides, half-maximal cytotoxicity in the series “in vitro” (CC50 at 5 days) was put at 7610 nM.
As for `O=C(Cc1c[nH]c2ccc(F)cc12)N[C@@H](Cc1cc(F)cc(F)c1)c1ncccc1-c1cnc2ccccc2c1` [Example 111, (S)—N-(2-(3,5-difluorophenyl)-1-(3-(quinolin-3-yl)pyridin-2-yl)ethyl)-2-(5-fluoro-1H-indol-3-yl)acetamide], in the series with HIV-IIIb, the inhibition at 2 µM stood at 41%. Besides, the midpoint of cytotoxicity in the series “in vitro”, the CC50 at 5 days, lay at 9950 nM.
The matching figures for `O=C(Cc1c[nH]c2ccc(O)cc12)N[C@@H](Cc1cc(F)cc(F)c1)c1ncccc1-c1ccc(F)cc1` [Example 113, (S)—N-(2-(3,5-difluorophenyl)-1-(3-(4-fluorophenyl)pyridin-2-yl)ethyl)-2-(5-hydroxy-1H-indol-3-yl)acetamide]: 78% and 22300 nM.
In the case of `O=C(Cn1nc(C(F)F)c2c1C(F)(F)C1CC21)N[C@@H](Cc1cc(F)cc(F)c1)c1ncccc1-c1ccc(NC(=O)NC2CC2)cc1` (stereo partly drawn) [Example 114, (S)—N-(1-(3-(4-(3-cyclopropylureido)phenyl)-pyridin-2-yl)-2-(3,5-difluorophenyl)ethyl)-2-(3-(difluoromethyl)-5,6-dihydro-4,5-(methano)-6,6-difluoro-cyclopenta[c]pyrazol-1(4H)-yl)acetamide], the inhibition at 2 µM with HIV-IIIb worked out at 32%. This compound also had a CC50 at 5 days in “in vitro” above 53200 nM.
